Experimental data reported in patent US6787128B2, “Structure-improving hair care agents” (Henkel Kommanditgesellschaft auf Aktien, priority 2000, dated 2004).
Marks after values point to notes of the source that are not given here.

Experiments:
[1] = system: Human hair (Alkinco 6634); experiment: HP-DSC keratin melting point of permanent-waved hair after 1% aqueous active substance, Alkinco 6634; conditions: treated 10 mins. with 1% aqueous solution of active substance, rinsed, dried
Source text: (§1) HP-DSC (High-Pressure Differential Scanning Calorimetry)
(§2) Thermoanalytical investigations are particularly suitable for characterizing two-phase systems to which human hair fibers as fibrous keratins with their crystalline α-helix component and amorphous matrix component also belong. On the one hand, glass transitions and aging behavior of the amorphous matrix can be investigated, on the other hand the melting behavior of the crystalline helical phase provides important information. Thermoanalytical studies were described for the first time in 1899. The first differential thermoanalyses (DTA) of protein fibers were carried out towards the end of the fifties (F. Schwenker, J. H. Dusenbury, Text. Res. J. 1963, 30, pages 800 et seq; W. D. Felix, M. A. McDowall, H. Eyring, ibid. (1963), 33, pages 465 et seq). In the following years, various thermoanalytical measuring techniques, such as DTA, HP-DTA (high-pressure DTA) and DSC (differential scanning calorimetry) were applied to keratin fibers, for example to investigate the phenomenon of supercontraction, α-β-phase transitions of the helices or denaturing processes. Recently, the method of IIP-DSC was used to study keratin fibers, more particularly at the Deutsches Wollforschungsinstitut (German Wool Research Institute) in Aachen (F. J. Wortmann, H. Deutz, J. Appl. Polym. Sci. 1993, 48, pp. 137 et seq.). IIP-DSC rules out the problems associated with pyrolytic effects which occur in conventional DSC and the problems with data acquisition and interpretation by which DTA is attended. DSC measurements are carried out on keratins which are encapsulated with water in commercially obtainable pressure-tight measuring capsules. In the keratin/water system, a high water vapor pressure from which the HP-DSC analysis derives builds up in the encapsulated steel crucibles on heating to >100° C. […]
(§3) Accordingly, both structural and chemical states and changes in fiber keratins and particularly in human hair fibers can be detected by dynamic differential scanning calorimetry (DSC). Under precisely defined test conditions, the processes detectable by calorimetry in human hair fibers can be recorded in the form of thermograms and used in regard to peak positions, structures and areas as an indicator for influencing order/disorder transitions through changes in inner and/or outer parameters produced, for example, by cosmetic treatment of the hair fibers. In other words, information on the strength of or damage to human hair fibers can be obtained from the endothermal peaks recorded in the thermogram of human hair fibers on the basis of peak position (transition point) and peak area (transition enthalpy). […]

[2] = system: Human hair (Alkinco 6633); experiment: HP-DSC keratin melting point of permanent-waved hair after 1% aqueous active substance, Alkinco 6633; conditions: for Keratin melting point for Alkinco 6633: permanent-waved hair, treated 10 mins. with 1% aqueous solution of active substance, rinsed, dried
Source text: as §1
Thermoanalytical investigations are particularly suitable for characterizing two-phase systems to which human hair fibers as fibrous keratins with their crystalline α-helix component and amorphous matrix component also belong. On the one hand, glass transitions and aging behavior of the amorphous matrix can be investigated, on the other hand the melting behavior of the crystalline helical phase provides important information. Thermoanalytical studies were described for the first time in 1899. The first differential thermoanalyses (DTA) of protein fibers were carried out towards the end of the fifties (F. Schwenker, J. H. Dusenbury, Text. Res. J. […], 30, pages 800 et seq; W. D. Felix, M. A. McDowall, H. Eyring, ibid. (1963), 33, pages 465 et seq). In the following years, various thermoanalytical measuring techniques, such as DTA, HP-DTA (high-pressure DTA) and DSC (differential scanning calorimetry) were applied to keratin fibers, for example to investigate the phenomenon of supercontraction, α-β-phase transitions of the helices or denaturing processes. Recently, the method of IIP-DSC was used to study keratin fibers, more particularly at the Deutsches Wollforschungsinstitut (German Wool Research Institute) in Aachen (F. J. Wortmann, H. Deutz, J. Appl. Polym. Sci. 1993, 48, pp. 137 et seq.). IIP-DSC rules out the problems associated with pyrolytic effects which occur in conventional DSC and the problems with data acquisition and interpretation by which DTA is attended. DSC measurements are carried out on keratins which are encapsulated with water in commercially obtainable pressure-tight measuring capsules. In the keratin/water system, a high water vapor pressure from which the HP-DSC analysis derives builds up in the encapsulated steel crucibles on heating to >100° C. The crucial difference between the HP-DSC thermograms of human hair fibers and normal DSC thermograms is that the endothermal peaks which reproduce the transition point and the transition enthalpy are shifted by ca. 90° C. to lower temperatures. This derives from the fact that, after diffusing into the hair fibers, the water reduces protein stability by weakening and splitting hydrogen bridge bonds and salt bonds so that the “gluing temperature” of the keratins is reduced. If only hydrogen bridges and salt bridges are dissolved by the supercontracting agent, such as water, the thermal effect is reversible (supercontraction). However, the process becomes irreversible when covalent bonds, such as disulfide bridges for example, are split. […]
as §3

[3] = Fastness to washing of oxidation hair color, overall color difference DE* after 6 washes; design: species or system human; conditions: colored (Poly Diadem 718), 5 mins. rinse (Application Example 3.2) containing 2% active substance, washed 6x, smaller DE* = higher fastness
Method: Human hair fibers (Kerling Naturweiβ) were used. The hair fibers were intentionally damaged at their tips (2× blonding and 2× permanent waving) in order to simulate seriously damaged hair. […] After rinsing and drying, […] measurements (hair shafts and tips separated) were carried out and were repeated after 6 washes. […] The smaller DE* is, the smaller the loss of color by shampooing and the higher the fastness to washing.

[4] = system: Human hair (Alkinco 6634); experiment: HP-DSC keratin melting point after aftertreatment with conditioner (Application Example 3.1) containing pyridoxine in various concentrations
Source text: as §1, §2, §3

| SMILES | Keratin melting point for Alkinco 6634 [1] [°C] | Keratin melting point for Alkinco 6633 [2] | DE* for normal weathered shafts [3] | DE* for seriously damaged tips ([3]; tips damaged 2x blonding and 2x permanent waving) | increase in melting point ([2]; Alkinco 6633, 1% in water, versus permanent-waved reference sample, not statistically highly significant) [°C] | Keratin melting point Alkinco 6634 ([4]; conditioner (Application Example 3.1) + 0.2% vitamin B6, 2 mins. aftertreatment of permanent-waved hair) [°C] | Keratin melting point Alkinco 6634 ([4]; conditioner (Application Example 3.1) + 0.5% vitamin B6, 2 mins. aftertreatment of permanent-waved hair) [°C] | Keratin melting point Alkinco 6634 ([4]; conditioner (Application Example 3.1) + 1.0% vitamin B6, 2 mins. aftertreatment of permanent-waved hair) [°C] | significance of (re)structuring effect by comparison with the reference sample ([4]; conditioner + 0.2% vitamin B6, Alkinco 6634) |
| --- | --- | --- | --- | --- | --- | --- | --- | --- | --- |
| Cc1ncc(CO)c(C=O)c1O [Pyridoxal, pyridoxal] | 152 | 147.7 °C |  |  |  |  |  |  |  |
| Cc1ncc(CO)c(CN)c1O [Pyridoxamine, pyridoxamine] | 152.2 | 147.9 °C |  |  |  |  |  |  |  |
| Cc1ncc(CO)c(CO)c1O [Pyridoxine, pyridoxine] | 152.1 | 144* ° C. | 1.8 | 5.8 | 0.5 | 146.2 | 146.5 | 147.4 | satistically significant |
| Cc1ncc(COP(=O)(O)O)c(C=O)c1O [Pyridoxal-5-phosphate, pyridoxal-5′-phosphate] | 152.7 | 148.3 °C |  |  |  |  |  |  |  |
